Reference: patent US20250255930A1, “METHODS OF TREATMENT OF TINNITUS USING DERIVATIVES OF OXYTOCIN” (MASKBEGONE LLC, priority 2024, published 2025)

Assay: clinical use of intranasal oxytocin formulations to treat tinnitus (patient case reports)
Type: in vivo, human
Text: According to an embodiment, this disclosure provides a method for treating tinnitus. The method comprises administering intranasally to an individual a composition comprising or consisting essentially of oxytocin, wherein such administration results in treatment of tinnitus. The effectiveness of treatment of tinnitus may be monitored by quantifying tinnitus, such as by self-evaluation using clinically accepted techniques. An example is the Tinnitus Handicap Inventory (“THI”), a validated and published measurement technique. (Newman et al., Arch Otolaryngol Head Neck Surg, 1996 February 122 (2), 143-8). In an embodiment, the improvement in an individual using THI may comprise an improvement of at least 10%. In various embodiments, the improvement may comprise from 10-100%, such as at least 20, 30, 40, 50, 60, 70, 80, 90, 95, or 99%.
This example describes clinical use of the present formulations to treat tinnitus. […] A compounded formulation of oxytocin that provided a dose of 60 IU daily (30 IU twice daily) was then used. The formulation contained oxytocin, magnesium chloride, citric acid, and sodium citrate in sterile water. […] The dose was then increased to 45 IU (3 sprays of 15 IU) 4 times daily. […] A thickener was then added to the formulation keeping the oxytocin amount the same. […] Their score on the Tinnitus Handicap Inventory reduced from a pretreatment score of 96 (meaning a catastrophic level) to a current score of 14 (meaning mild or no tinnitus). The patient has remained improved over 1 year since initiating therapy. Their current dose is 22.5 IU in each nostril 4 times daily. Since their tinnitus occurs in distinct cycles, at times when tinnitus severity is loudest, they increase the dose to 5 times daily for 2 days. […] Their current handicap inventory is 8.

[1] = first patient, 22.5 IU in each nostril 4 times daily, 5 times daily for 2 days when loudest, past 3 months
[2] = patient with constant tinnitus, 30 IU 4 times daily, after 2 weeks
[3] = second patient, 45 IU twice daily

## CC[C@H](C)[C@@H]1NC(=O)[C@H](Cc2ccc(O)cc2)NC(=O)[C@@H](N)CSSC[C@@H](C(=O)N2CCC[C@H]2C(=O)N[C@@H](CC(C)C)C(=O)NCC(N)=O)NC(=O)[C@H](CC(N)=O)NC(=O)[C@H](CCC(N)=O)NC1=O [oxytocin, Cys-Tyr-Ile-Gln-Asn-Cys-Pro-Leu-Gly]
First patient
  time patient has remained improved since initiating therapy: over 1 year
First patient, 22.5 IU in each nostril 4 times daily, 5 times daily for 2 days when loudest
  current handicap inventory: 8
[1]
  time without tinnitus: ≤ 10 days
  tinnitus severity: reduced tinnitus severity
First patient, 45 IU (3 sprays of 15 IU) 4 times daily
  relief of tinnitus: significant relief
First patient, 60 IU daily (30 IU twice daily), oxytocin, magnesium chloride, citric acid, sodium citrate in sterile water
  patient-reported benefit: partial benefit
First patient, after treatment with thickener formulation, pretreatment score 96
  score on the Tinnitus Handicap Inventory: 14
First patient, initial dose of less than 20 IU daily
  relief of tinnitus: did not provide any relief
First patient, thickener added to formulation, oxytocin amount the same (45 IU 4 times daily)
  tinnitus free period: several days of tinnitus free period
Lower amounts of oxytocin (such as under 20 IU per day)
  relief of tinnitus: did not result in any significant relief
Patient with constant tinnitus after neck injury, 45 IU (22.5 IU in each nostril) 4 times daily for 30 days
  improvement: about 15%
Patient with constant tinnitus after neck injury, dose raised to 5 times daily on occasions
  tinnitus volume: diminished tinnitus volume
[2]
  time without noticing the tinnitus: several hours per day without noticing the tinnitus
  tinnitus intensity: tinnitus intensity has lowered
Patient with drug-caused tinnitus, 30 IU twice daily
  benefit: without benefit
Patient with drug-caused tinnitus, 45 IU 4 times daily
  decrease in tinnitus volume: approximately 30%
[3]
  benefit: significant benefit
  reduction of tinnitus volume: 45-60%
  time patient remains improved: more than a year
  tinnitus free days: some days in which they are tinnitus free
